Patent publication US9919019B2, “Use of essential oil of oregano or of rosewood, or constituents thereof, in the cosmetic treatment of keratoses” (L'Oreal, priority 2010, dated 2018)

Tested on: A431 cells
Experiment: Annexin V/propidium iodide (AV/PI) apoptosis test in A431 cells
Assay type: cell-based, human
Conditions: for death by targeted apoptosis of mutated cancer cells / cytotoxic efficacy compared with complex essential oils: 12 h; for death by targeted apoptosis of mutated cancer cells: A431 versus HEK001, concentrations equal to those present in the EO treatments (linalool 320 nL/mL, carvacrol 60 nL/mL, thymol 30 nL/mL); for cytotoxic efficacy compared with complex essential oils: equivalent dose; for apoptotic A431 cells: 12 h of treatment
Method: These three molecules were incubated for 12 h with non-mutated immortalized keratinocytes (HEK001) and mutated cancerous keratinocytes (A431). The percentage of cells in apoptosis was measured by the annexin V/propidium iodide test. The concentrations of the molecules used were equal to those present during the treatments with the essential oils. Example: the concentration of linalool used here represents the equivalent of 80% of linalool present in the essential oil of rosewood.
Thirty six hours before the treatment, the cells were distributed into a 96-well plate (5×10^5 cells/mL).
EO treatment solution: the essential oils were diluted to 1/10th a first time in 100% ethanol. Next, a second dilution was carried out in culture medium in order to obtain the desired concentrations.
The AV/PI test can be used to detect this event because of the affinity of the protein annexin V for phosphatidyl-serine. Propidium iodide, which targets DNA, can be used to distinguish early apoptotic cells from cells in late apoptosis and/or in necrosis.
After the desired treatment time, the medium was eliminated, the cells were harvested (by trypsinization), centrifuged and rinsed in 4 mL of PBS 1×. Tagging was carried out following the instructions of the manufacturer (Kit Vybrant, Molecular Probe). The cells were rapidly taken up in 100 μl of tagging buffer, to which 6 μl of annexin V and 3 μg/mL of propidium iodide per sample was added. The cells were then incubated for 30 min in the dark (at ambient temperature). Four hundred μL of tagging buffer was added before measuring the fluorescence of the annexin V (at 530 nm) and of the propidium iodide (at 610 nm).

SMILES: Cc1ccc(C(C)C)c(O)c1 [thymol]
- death by targeted apoptosis of mutated cancer cells: qualitatively conserved
- cytotoxic efficacy compared with complex essential oils: lower than with complex essential oils
- apoptotic A431 cells (thymol 30 nL/mL): approximately 15%

SMILES: C=CC(C)(O)CCC=C(C)C (centres unmarked) [linalool]
- death by targeted apoptosis of mutated cancer cells: qualitatively conserved
- cytotoxic efficacy compared with complex essential oils: lower than with complex essential oils

SMILES: Cc1ccc(C(C)C)cc1O [carvacrol]
- death by targeted apoptosis of mutated cancer cells: qualitatively conserved
- cytotoxic efficacy compared with complex essential oils: lower than with complex essential oils
- apoptotic A431 cells (carvacrol 60 nL/mL): ~25%
